From US6933396B2, “Process to prepare psorospermin” (Cylene Pharmaceuticals, priority 2002, dated 2005)

Key:
various tumor cell lines = test: MTS cytotoxicity / cell viability assays with various tumor cell lines; type: cell-based
From the text: FIG. 1 illustrates a comparison of (R,R)-psorospermin with (R,R)-5-methoxy-psorospermin, (R,S)-5-methoxy-psorospermin, (S,R)-5-methoxy-psorospermin and (S,S)-5-methoxy-psorospermin in cell viability assays with various tumor cell lines.
MTS cytotoxicity data was collected for a comparison of (R,R)-psorospermin with (R,R)-5-methoxy-psorospermin, (R,S)-5-methoxy-psorospermin, (S,R)-5-methoxy-psorospermin and (S,S)-5-methoxy-psorospermin in cell viability assays with various tumor cell lines, the results of which are shown in FIG. 1.

[1] = Blood plasma levels (pharmacokinetics) after i.v. injection in rats; type: in vivo, Sprague Dawley rats; details: for blood plasma levels of parent compound: over 24 h
Method: Blood plasma levels of psorospermin over 24 h after a 5 mg/Kg injection i.v. in Sprague Dawley rats were measured. Blood plasma levels of 5-methoxy-psorospermin over 24 h after a 5 mg/Kg injection i.v. in Sprague Dawley rats were measured.

[2] = 5 mg/Kg injection i.v., Sprague Dawley rats

| SMILES | activity relative to stereoisomeric counterparts (various tumor cell lines; compared with (2R′, 3S′) or (2S′, 3S′) counterparts) | antitumor activity in a variety of cell lines (various tumor cell lines; variety of cell lines including those of solid tumors and lymphomas, compared with natural product psorospermin) | time for which a therapeutic dose is exhibited in rodents ([1]; 5 mg/Kg injection i.v., Sprague Dawley rats, FIG. 3) | blood plasma levels of parent compound [1, 2] | systemic presence ([1]; in comparison with 2′R,3′R psorospermin) | blood plasma levels of parent compound ([1]; 5 mg/Kg injection i.v., Sprague Dawley rats, listed as natural product) |
| --- | --- | --- | --- | --- | --- | --- |
| COc1cccc2c(=O)c3c(OC)cc4c(c3oc12)C[C@H]([C@@]1(C)CO1)O4 [(R,R)-5-Methoxypsorospermin, (2′R,3′R) 5-Methoxy Psorospermin] | more active than their (2R′, 3S′) or (2S′, 3S′) counterparts | comparable antitumor activity to that of the natural product psorospermin | exceeds two hours | prolonged measurable quantities of the parent with a good half life | prolonged systemic presence in comparison with 2′R,3′R psorospermin | – |
| COc1cc2c(c3oc4c(O)cccc4c(=O)c13)C[C@H]([C@@]1(C)CO1)O2 [psorospermin, (2′R,3′R) Psorospermin] | – | – | – | Little parent compound can be detected within the first 24 h after dosing | – | could be barely detected at any time point |
